Target: T1, Bcl-2 protein (Recombinant Human Bcl-2 Protein) (Homo sapiens, UniProt P10415)
T1 construct: purchased Novus NBP2-34889
Assay: Binding evaluation of mixture library compounds to Bcl-2 using AS-MS (affinity selection mass spectrometry)
Conditions: ASMS Ratio(%)=(A−C)/B×100; for ASMS ratio (%) n = 1: replicate n = 1; for ASMS ratio (%) n = 2: replicate n = 2
Experimental: For one well of MICROPLATE, 96-well, PP, V-BOTTOM (Greiner bio-one, 651201), DMSO solutions of 12 mixtures (prepared to approximately 0.58 mM based on calculations from the average molecular weight of each mixture), in each of which 100 compounds are mixed, were each dispensed, and dispensed into a total of 12 wells, where the 12 mixtures are mixAI-B4J-01, mixAI-B1M-01, mixAI-B1K-01, mixAI-B10-01, mixAI-B1A-01, mixAI-B3A-01, mixAI-B21-01, mixAI-B2L-01, mixAI-B2N-01, mixAI-B2A-01, mixAI-B2Q-01, and mixAI-B2R-01 listed in [Table AI-03-B4J-01], [Table AI-03-B1M-01], [Table AI-03-B1K-01], [Table AI-03-B10-01], [Table AI-03-B1A-01], [Table AI-03-B3A-01], [Table AI-03-B2I-01], [Table AI-03-B2L-01], [Table AI-03-B2N-01], [Table AI-03-B2A-01], [Table AI-03-B2Q-01], and [AI-03-B2R-01] shown in Example 6. Using the LABCYTE ECHO® 555 Acoustic Dispensing System (BECKMAN COULTER), 70 nL was collected from each of the 12 wells into one arbitrary well to prepare a sample solution with 1200 compounds in the mixed state (the presence of 1152 compounds had already been identified when prepared in Example 6-5-3). (In the present specification, the mixture collected in this one well is referred to as one library.) Furthermore, a Bcl-2 protein (Novus, NBP2-34889, Recombinant Human Bcl-2 Protein, Lot E60145051) (19.2 μL) that had been prepared in advance to be 20.9 μM using a Tris-HCl buffer (25 mM Tris-HCl pH 7.4, 150 mM NaCl, 0.025% Tween-20, 1 mM DTT) was added to the well in which 1200 compounds (the presence of 1152 compounds had already been identified when prepared in Example 6-5-3) were dispensed (final compound concentration […], final Bcl-2 concentration 20 μM), and the mixture was incubated in the dark at 23° C. for 1 hour. Next, using the 96-well MacroSpin column, P-2 Material (Harvard, 74-5655) that had been swollen, conditioning of the 96-well MacroSpin column was performed three times by centrifugation with 200 μL of an assay buffer (25 mM Tris-HCl pH 7.4, 150 mM NaCl, 0.025% Tween-20, 1 mM DTT), 2000 XG, 4° C., 2 min. Subsequently, 20 μL of the sample after incubation was added to the 96-well MacroSpin column, P-2 Material, that had been conditioned, and SEC treatment was performed by centrifugation at 2000×G for 2 minutes. To the liquid passed from the SEC, 32 μL of a 1:1 mixed solution of acetonitrile and methanol (LC/MS grade, Fujifilm Wako Pure Chemical Corporation) was added, the mixture was centrifuged at 1800×G, 4° C., 5 min, and the supernatant was used as analysis sample ASMS (A), while a sample that had been prepared by the same operations at 1200 compounds/well and to which only the Tris-HCl buffer had been added without the Bcl-2 protein was incubated under the same conditions, no 96-well MacroSpin column treatment was performed, the same organic solvent was added, and the supernatant solution obtained by centrifugation was used as STD (B). Next, a sample that had been prepared by the same operations at 1200 compounds/well and to which only the Tris-HCl buffer had been added without the Bcl-2 protein was incubated under the same conditions, the same 96-well MacroSpin column treatment was performed, the same organic solvent was added, and the supernatant solution obtained by centrifugation was used as BK (C), and measured by reversed phase LC/MS.
Then, analysis of the 1200 compounds was carried out for samples A, B, and C with TraceFinder 5.1 (Thermo Fisher Scientific) and CHANCE Software (in-house), and the ASMS Ratio (%) was calculated according to the following calculation formula.
Calculation formula: ASMS Ratio(%)=(A−C)/B×100

[1] = AS-MS, mixture of 1200 compounds, Bcl-2
[2] = AS-MS on the mixture of 1200 library compounds

T1 sequence (P10415 whole entry): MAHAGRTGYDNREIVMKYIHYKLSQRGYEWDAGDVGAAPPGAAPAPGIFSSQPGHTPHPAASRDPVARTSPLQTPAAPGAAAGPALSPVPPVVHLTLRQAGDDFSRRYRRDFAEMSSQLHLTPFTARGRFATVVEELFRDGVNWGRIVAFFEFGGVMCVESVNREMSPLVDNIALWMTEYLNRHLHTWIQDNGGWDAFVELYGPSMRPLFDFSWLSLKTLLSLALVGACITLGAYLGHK

Row | Substance | ASMS ratio (%) n = 1 [1] | ASMS ratio (%) n = 2 [1] | ASMS ratio (%) n = 1 [2] | ASMS ratio (%) n = 2 [2]
1 | 4-[4-[1-[4-(3-Ethoxyphenyl)-2-fluorophenyl]ethyl]piperazin-1-yl]-N-propylbenzamide [B1M005-01] | 0.0% | 1.4% | – | –
2 | 4-[4-[1-[4-(3-Ethoxyphenyl)phenyl]ethyl]piperazin-1-yl]-N-propylbenzamide [B1M003-01] | −1.9% | 2.0% | – | –
3 | 4-[4-[1-[4-(5-Ethoxypyridin-3-yl)-2-fluorophenyl]ethyl]piperazin-1-yl]-N-propylbenzamide [B1M006-01] | 0.0% | 0.0% | – | –
4 | 4-[4-[1-[4-(5-Ethoxypyridin-3-yl)phenyl]ethyl]piperazin-1-yl]-N-propylbenzamide [B1M004-01] | 0.0% | 0.0% | – | –
5 | 4-[4-[2-[2-(3-Ethoxyphenyl)ethynyl]benzoyl]piperazin-1-yl]-N-propylbenzamide [B1M097-01] | – | – | 1.1% | 0.3%
6 | 4-[4-[2-[2-(5-Ethoxypyridin-3-yl)ethynyl]benzoyl]piperazin-1-yl]-N-propylbenzamide [B1M098-01] | – | – | 0.9% | 0.3%
7 | 4-[4-[3-(3-Ethoxyphenyl)-5-(trifluoromethyl)benzoyl]piperazin-1-yl]-N-propylbenzamide [B1M092-01] | – | – | – | 0.0%
8 | 4-[4-[3-(5-Ethoxypyridin-3-yl)-5-(trifluoromethyl)benzoyl]piperazin-1-yl]-N-propylbenzamide [B1M008-01] | – | 0.0% | – | –
9 | 4-[4-[3-[2-(3-Ethoxyphenyl)ethynyl]-5-(trifluoromethyl)benzoyl]piperazin-1-yl]-N-propylbenzamide [B1M014-01] | 4.1% | 0.4% | – | –
10 | 4-[4-[3-[2-(3-Ethoxyphenyl)phenyl]propanoyl]piperazin-1-yl]-N-propylbenzamide [B1M068-01] | 1.1% | 0.0% | – | –
11 | 4-[4-[3-[2-(5-Ethoxypyridin-3-yl)ethynyl]-5-(trifluoromethyl)benzoyl]piperazin-1-yl]-N-propylbenzamide [B1M019-01] | 1.5% | 0.0% | – | –
12 | 4-[4-[3-[2-(5-Ethoxypyridin-3-yl)phenyl]propanoyl]piperazin-1-yl]-N-propylbenzamide [B1M078-01] | 0.0% | 0.0% | – | –
13 | 4-[4-[3-[4-(3-Ethoxyphenyl)pyrazol-1-yl]-5-(trifluoromethyl)benzoyl]piperazin-1-yl]-N-propylbenzamide [B1M025-01] | 3.6% | −1.2% | – | –
14 | 4-[4-[3-[4-(5-Ethoxypyridin-3-yl)pyrazol-1-yl]-5-(trifluoromethyl)benzoyl]piperazin-1-yl]-N-propylbenzamide [B1M031-01] | 0.0% | −2.4% | – | –
15 | 4-[4-[3-tert-Butyl-5-(3-ethoxyphenyl)benzoyl]piperazin-1-yl]-N-propylbenzamide [B1M062-01] | 1.6% | −1.7% | – | –
16 | 4-[4-[3-tert-Butyl-5-(5-ethoxypyridin-3-yl)benzoyl]piperazin-1-yl]-N-propylbenzamide [B1M063-01] | 0.4% | −1.1% | – | –
17 | 4-[4-[4-(3-Ethoxyphenyl)-3-fluorobenzoyl]piperazin-1-yl]-N-propylbenzamide [B1M090-01] | – | – | 0.0% | 0.0%
18 | 4-[4-[4-(3-Ethoxyphenyl)-3-methylbenzoyl]piperazin-1-yl]-N-propylbenzamide [B1M038-01] | 0.0% | 1.7% | – | –
19 | 4-[4-[4-(3-Ethoxyphenyl)naphthalene-1-carbonyl]piperazin-1-yl]-N-propylbenzamide [B1M073-01] | 0.4% | −0.5% | – | –

Source: US20240132431A1, “METHOD FOR ALKYLATING ACIDIC FUNCTIONAL GROUP” (Chugai Seiyaku Kabushiki Kaisha, priority 2021, published 2024)
